Assays:
Assay in all cases: KINOMEscan competition binding
Details in all cases: compound 10.0 µM
[1] = molecular target: JAK1 JH1 catalytic (human) (UniProt P23458)
EPHB3 (human) = EPHB3 (human) (UniProt P54753)
[2] = system: EGFR (human), P00533 [T790M]
HIPK2 (human) = HIPK2 (human) (UniProt Q9H2X6)
LIMK2 (human) = LIMK2 (human) (UniProt P53671)
NEK1 (human) = NEK1 (human) (UniProt Q96PY6)
ITK (human) = ITK (human) (UniProt Q08881)
FYN (human) = FYN (human) (UniProt P06241)
STK35 (human) = STK35 (human) (UniProt Q8TDR2)
PIK3CA (human) = PIK3CA (human) (UniProt P42336)
ALK (human) = ALK (human) (UniProt Q9UM73)
STK16 (human) = STK16 (human) (UniProt O75716)
DYRK1A (human) = DYRK1A (human) (UniProt Q13627)
DAPK2 (human) = DAPK2 (human) (UniProt Q9UIK4)
SGK3 (human) = SGK3 (human) (UniProt Q96BR1)
MAP3K11 (human) = MAP3K11 (human) (UniProt Q16584)
RPS6KA2 KD1 (human) = RPS6KA2 KD1 (human) (UniProt Q15349)
RPS6KA6 KD1 (human) = RPS6KA6 KD1 (human) (UniProt Q9UK32)
MAP2K6 (human) = MAP2K6 (human) (UniProt P52564)
Sequence of MAP2K6 (human) (P52564 whole entry, looked up): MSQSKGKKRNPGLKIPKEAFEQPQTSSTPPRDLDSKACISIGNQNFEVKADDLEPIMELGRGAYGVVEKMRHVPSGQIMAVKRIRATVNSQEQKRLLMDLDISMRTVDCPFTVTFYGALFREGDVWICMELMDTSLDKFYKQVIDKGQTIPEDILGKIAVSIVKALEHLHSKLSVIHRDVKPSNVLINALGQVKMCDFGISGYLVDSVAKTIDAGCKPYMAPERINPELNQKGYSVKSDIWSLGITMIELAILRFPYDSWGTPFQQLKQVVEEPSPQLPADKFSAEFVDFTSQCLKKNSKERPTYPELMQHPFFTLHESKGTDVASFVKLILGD

PAK2 (human) = PAK2 (human) (UniProt Q13177)
HIPK3 (human) = HIPK3 (human) (UniProt Q9H422)
Sequence of HIPK3 (human) (Q9H422 whole entry, looked up): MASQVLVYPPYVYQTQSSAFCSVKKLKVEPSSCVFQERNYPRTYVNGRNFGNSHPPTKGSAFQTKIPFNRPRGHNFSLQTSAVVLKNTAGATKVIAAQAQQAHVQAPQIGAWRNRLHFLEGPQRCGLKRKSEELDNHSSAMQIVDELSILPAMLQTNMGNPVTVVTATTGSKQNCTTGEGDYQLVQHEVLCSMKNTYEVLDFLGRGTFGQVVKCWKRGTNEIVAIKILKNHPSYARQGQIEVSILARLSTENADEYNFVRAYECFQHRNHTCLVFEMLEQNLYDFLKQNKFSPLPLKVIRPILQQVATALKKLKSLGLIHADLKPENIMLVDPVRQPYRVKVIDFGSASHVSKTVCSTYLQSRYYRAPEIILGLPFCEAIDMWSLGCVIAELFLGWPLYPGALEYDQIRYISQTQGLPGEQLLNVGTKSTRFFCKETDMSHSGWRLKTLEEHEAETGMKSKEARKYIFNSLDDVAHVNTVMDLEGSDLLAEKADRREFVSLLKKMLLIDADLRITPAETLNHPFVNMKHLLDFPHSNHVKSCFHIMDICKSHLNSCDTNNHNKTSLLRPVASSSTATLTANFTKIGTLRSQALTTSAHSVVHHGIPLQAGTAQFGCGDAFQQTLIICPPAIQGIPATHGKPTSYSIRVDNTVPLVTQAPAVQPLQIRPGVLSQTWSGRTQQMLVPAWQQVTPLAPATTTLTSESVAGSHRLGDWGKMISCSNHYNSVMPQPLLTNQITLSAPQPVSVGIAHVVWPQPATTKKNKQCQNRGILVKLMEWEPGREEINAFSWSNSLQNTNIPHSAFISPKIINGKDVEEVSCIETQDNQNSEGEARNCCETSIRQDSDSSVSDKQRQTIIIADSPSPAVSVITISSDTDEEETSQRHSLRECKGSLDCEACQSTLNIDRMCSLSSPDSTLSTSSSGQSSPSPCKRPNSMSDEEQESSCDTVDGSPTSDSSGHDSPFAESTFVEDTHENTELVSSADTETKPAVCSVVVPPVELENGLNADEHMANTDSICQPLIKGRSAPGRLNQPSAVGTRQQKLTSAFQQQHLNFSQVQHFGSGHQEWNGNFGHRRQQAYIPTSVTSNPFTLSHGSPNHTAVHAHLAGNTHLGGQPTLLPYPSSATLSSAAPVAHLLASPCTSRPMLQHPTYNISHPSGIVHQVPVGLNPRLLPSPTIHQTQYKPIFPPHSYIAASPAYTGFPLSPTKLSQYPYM

STK32A (human) = STK32A (human) (UniProt Q8WU08)
PIM1 (human) = PIM1 (human) (UniProt P11309)
Sequence of PIM1 (human) (P11309 whole entry, looked up): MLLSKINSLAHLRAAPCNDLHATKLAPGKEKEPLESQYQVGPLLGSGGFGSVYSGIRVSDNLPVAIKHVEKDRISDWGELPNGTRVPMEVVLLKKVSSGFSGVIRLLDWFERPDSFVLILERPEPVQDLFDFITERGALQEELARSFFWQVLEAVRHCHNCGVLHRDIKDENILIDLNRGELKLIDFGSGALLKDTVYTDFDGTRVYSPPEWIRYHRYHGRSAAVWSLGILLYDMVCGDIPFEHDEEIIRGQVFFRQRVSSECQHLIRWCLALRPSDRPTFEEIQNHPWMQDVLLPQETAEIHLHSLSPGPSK

EPHA5 (human) = EPHA5 (human) (UniProt P54756)
BRAF (human) = BRAF (human) (UniProt P15056)
PRKCI (human) = PRKCI (human) (UniProt P41743)
Sequence of PRKCI (human) (P41743 whole entry, looked up): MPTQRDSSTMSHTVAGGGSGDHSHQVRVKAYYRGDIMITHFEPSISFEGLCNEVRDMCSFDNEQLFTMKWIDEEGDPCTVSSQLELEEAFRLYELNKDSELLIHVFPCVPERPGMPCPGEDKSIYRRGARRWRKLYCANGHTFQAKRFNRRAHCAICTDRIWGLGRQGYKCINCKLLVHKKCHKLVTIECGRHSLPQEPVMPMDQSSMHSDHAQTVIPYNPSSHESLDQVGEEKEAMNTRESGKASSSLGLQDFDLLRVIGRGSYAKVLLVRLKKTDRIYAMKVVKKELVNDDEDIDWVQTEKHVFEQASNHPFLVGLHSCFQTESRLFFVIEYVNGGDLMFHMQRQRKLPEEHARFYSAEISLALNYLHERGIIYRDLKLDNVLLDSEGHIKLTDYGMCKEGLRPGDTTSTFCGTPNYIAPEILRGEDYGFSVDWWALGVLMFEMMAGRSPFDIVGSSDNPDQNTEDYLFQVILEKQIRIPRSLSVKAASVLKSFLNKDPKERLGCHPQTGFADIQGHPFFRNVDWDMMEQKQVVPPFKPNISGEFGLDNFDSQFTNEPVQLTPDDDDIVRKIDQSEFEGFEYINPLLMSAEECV

CDK3 (human) = CDK3 (human) (UniProt Q00526)
RPS6KA1 KD2 (human) = RPS6KA1 KD2 (human) (UniProt Q15418)
Sequence of RPS6KA1 KD2 (human) (Q15418 whole entry, looked up): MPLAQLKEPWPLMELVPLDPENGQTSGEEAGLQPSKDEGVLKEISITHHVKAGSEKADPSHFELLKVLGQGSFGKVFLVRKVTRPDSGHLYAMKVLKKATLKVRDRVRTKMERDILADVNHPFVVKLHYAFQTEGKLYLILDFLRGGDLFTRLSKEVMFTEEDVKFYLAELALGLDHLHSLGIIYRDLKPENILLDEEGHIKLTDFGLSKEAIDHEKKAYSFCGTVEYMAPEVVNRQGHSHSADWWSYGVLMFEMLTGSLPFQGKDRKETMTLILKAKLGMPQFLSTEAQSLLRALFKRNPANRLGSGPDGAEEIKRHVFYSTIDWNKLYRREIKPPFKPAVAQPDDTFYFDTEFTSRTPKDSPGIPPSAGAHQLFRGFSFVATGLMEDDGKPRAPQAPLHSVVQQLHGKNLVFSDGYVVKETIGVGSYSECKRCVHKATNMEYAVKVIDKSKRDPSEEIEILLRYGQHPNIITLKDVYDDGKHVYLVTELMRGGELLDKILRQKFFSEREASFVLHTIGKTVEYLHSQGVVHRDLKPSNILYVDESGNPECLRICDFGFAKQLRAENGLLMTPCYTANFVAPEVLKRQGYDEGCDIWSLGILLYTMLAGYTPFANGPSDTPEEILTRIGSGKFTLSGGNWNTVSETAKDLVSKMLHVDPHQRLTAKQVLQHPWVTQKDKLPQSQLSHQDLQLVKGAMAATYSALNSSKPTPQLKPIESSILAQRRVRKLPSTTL

TNK2 (human) = TNK2 (human) (UniProt Q07912)
HIPK1 (human) = HIPK1 (human) (UniProt Q86Z02)
SRPK2 (human) = SRPK2 (human) (UniProt P78362)
Sequence of SRPK2 (human) (P78362 whole entry, looked up): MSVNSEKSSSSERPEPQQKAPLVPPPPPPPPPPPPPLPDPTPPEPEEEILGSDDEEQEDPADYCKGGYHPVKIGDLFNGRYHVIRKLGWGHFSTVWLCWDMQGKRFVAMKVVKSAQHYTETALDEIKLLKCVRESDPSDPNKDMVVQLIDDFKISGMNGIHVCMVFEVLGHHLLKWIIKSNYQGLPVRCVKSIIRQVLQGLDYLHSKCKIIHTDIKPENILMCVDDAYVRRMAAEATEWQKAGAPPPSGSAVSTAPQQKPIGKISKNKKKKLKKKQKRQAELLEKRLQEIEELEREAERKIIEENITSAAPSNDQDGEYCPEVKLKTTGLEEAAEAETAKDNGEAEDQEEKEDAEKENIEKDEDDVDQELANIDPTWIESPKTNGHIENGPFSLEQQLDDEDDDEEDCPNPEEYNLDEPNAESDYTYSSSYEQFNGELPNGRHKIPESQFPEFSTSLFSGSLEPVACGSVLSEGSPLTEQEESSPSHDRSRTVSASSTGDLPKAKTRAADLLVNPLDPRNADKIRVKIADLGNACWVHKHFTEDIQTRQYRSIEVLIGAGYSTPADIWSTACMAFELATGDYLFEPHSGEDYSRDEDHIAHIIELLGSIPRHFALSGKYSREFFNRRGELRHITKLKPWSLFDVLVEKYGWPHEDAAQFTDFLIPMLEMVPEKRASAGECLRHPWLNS

MAP3K2 (human) = MAP3K2 (human) (UniProt Q9Y2U5)
CDK14 (human) = CDK14 (human) (UniProt O94921)
ACVR1B (human) = ACVR1B (human) (UniProt P36896)
Sequence of ACVR1B (human) (P36896 whole entry, looked up): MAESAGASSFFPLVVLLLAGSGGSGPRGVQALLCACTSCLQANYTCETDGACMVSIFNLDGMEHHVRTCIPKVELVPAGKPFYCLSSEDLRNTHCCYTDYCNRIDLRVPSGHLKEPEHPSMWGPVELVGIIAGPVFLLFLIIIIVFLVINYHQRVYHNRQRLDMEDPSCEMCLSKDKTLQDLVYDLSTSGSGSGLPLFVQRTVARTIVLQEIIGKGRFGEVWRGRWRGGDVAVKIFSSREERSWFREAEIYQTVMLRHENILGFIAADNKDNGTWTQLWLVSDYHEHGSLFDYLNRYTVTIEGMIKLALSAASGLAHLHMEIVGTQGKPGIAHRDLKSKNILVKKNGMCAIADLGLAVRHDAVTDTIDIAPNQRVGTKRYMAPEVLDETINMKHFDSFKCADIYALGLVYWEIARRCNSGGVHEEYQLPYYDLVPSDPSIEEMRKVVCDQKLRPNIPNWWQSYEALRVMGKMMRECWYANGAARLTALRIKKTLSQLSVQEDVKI

MUSK (human) = MUSK (human) (UniProt O15146)

Sequence of FYN (human) (P06241 whole entry, looked up): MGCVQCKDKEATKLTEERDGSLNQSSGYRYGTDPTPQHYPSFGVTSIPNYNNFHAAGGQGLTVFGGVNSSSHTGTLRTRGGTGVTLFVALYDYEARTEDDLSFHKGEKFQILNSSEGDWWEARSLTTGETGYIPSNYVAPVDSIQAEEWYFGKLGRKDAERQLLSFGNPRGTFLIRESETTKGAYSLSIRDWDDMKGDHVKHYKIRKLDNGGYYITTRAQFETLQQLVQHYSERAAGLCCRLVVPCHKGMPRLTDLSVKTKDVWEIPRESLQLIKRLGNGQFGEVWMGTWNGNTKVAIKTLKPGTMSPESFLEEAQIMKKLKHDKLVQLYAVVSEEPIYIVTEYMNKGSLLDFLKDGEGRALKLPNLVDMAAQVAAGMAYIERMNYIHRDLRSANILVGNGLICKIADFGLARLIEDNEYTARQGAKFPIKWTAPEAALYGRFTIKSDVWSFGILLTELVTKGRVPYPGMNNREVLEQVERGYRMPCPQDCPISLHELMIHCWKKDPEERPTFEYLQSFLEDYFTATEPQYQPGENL

Row | Compound | kinase still bound, per cent of control [1] [%] | kinase still bound, per cent of control (EPHB3 (human)) [%] | kinase still bound, per cent of control (HIPK2 (human)) [%] | kinase still bound, per cent of control (LIMK2 (human)) [%] | kinase still bound, per cent of control (NEK1 (human)) [%] | kinase still bound, per cent of control (ITK (human)) [%] | kinase still bound, per cent of control (FYN (human)) [%] | kinase still bound, per cent of control (PIK3CA (human)) [%] | kinase still bound, per cent of control (STK16 (human)) [%] | kinase still bound, per cent of control (DYRK1A (human)) [%] | kinase still bound, per cent of control (DAPK2 (human)) [%] | kinase still bound, per cent of control (SGK3 (human)) [%] | kinase still bound, per cent of control (MAP3K11 (human)) [%] | kinase still bound, per cent of control (RPS6KA2 KD1 (human)) [%] | kinase still bound, per cent of control (RPS6KA6 KD1 (human)) [%] | kinase still bound, per cent of control (MAP2K6 (human)) [%] | kinase still bound, per cent of control (PAK2 (human)) [%] | kinase still bound, per cent of control (HIPK3 (human)) [%] | kinase still bound, per cent of control (STK32A (human)) [%] | kinase still bound, per cent of control (PIM1 (human)) [%] | other results
1 | O=c1cc(N2CCOCC2)oc2c(-c3cccc4c3sc3ccccc34)cccc12 | 100 | 100 | 100 | 100 | 58 | 100 | 100 | 22 | 98 | 61 | 90 | 100 | 97 | 97 | 71 | 73 | 61 | 92 | 100 | 62 | kinase still bound, per cent of control [2]: 100%; kinase still bound, per cent of control (STK35 (human)): 80%; kinase still bound, per cent of control (ALK (human)): 100%; kinase still bound, per cent of control (EPHA5 (human)): 100%; kinase still bound, per cent of control (BRAF (human)): 100%; kinase still bound, per cent of control (PRKCI (human)): 100%; kinase still bound, per cent of control (CDK3 (human)): 100%; kinase still bound, per cent of control (RPS6KA1 KD2 (human)): 75%; kinase still bound, per cent of control (TNK2 (human)): 97%; kinase still bound, per cent of control (HIPK1 (human)): 93%; kinase still bound, per cent of control (SRPK2 (human)): 78%; kinase still bound, per cent of control (MAP3K2 (human)): 100%; kinase still bound, per cent of control (CDK14 (human)): 100%; kinase still bound, per cent of control (ACVR1B (human)): 91%; kinase still bound, per cent of control (MUSK (human)): 100%
2 | C[C@@H](Oc1cc(-c2cnn(C3CCNCC3)c2)cnc1N)c1c(Cl)ccc(F)c1Cl | 0.45 | 100 | 93 | 4.6 | 56 | 33 | 10 | 100 | 63 | 100 | 97 | 100 | 81 | 34 | 46 | 54 | 96 | 92 | 86 | 100 | kinase still bound, per cent of control (EPHA5 (human)): 1.8%; kinase still bound, per cent of control (BRAF (human)): 53%; kinase still bound, per cent of control (PRKCI (human)): 35%; kinase still bound, per cent of control (CDK3 (human)): 100%; kinase still bound, per cent of control (RPS6KA1 KD2 (human)): 54%; kinase still bound, per cent of control (TNK2 (human)): 2.8%; kinase still bound, per cent of control (HIPK1 (human)): 78%; kinase still bound, per cent of control (SRPK2 (human)): 46%; kinase still bound, per cent of control (MAP3K2 (human)): 0.05%; kinase still bound, per cent of control (CDK14 (human)): 92%; kinase still bound, per cent of control (ACVR1B (human)): 9%; kinase still bound, per cent of control (MUSK (human)): 0.3%
3 | O=C(Nc1cccc(Nc2ncc(Br)c(NCCc3cnc[nH]3)n2)c1)N1CCCC1 | 0.25 | 100 | 1.6 | 59 | 30 | 4.5 | 8.2 | 100 | 0.55 | 12 | 22 | 91 | 0.75 | 7.6 | 0.6 | 22 | 45 | 3.7 | 51 | 87 | kinase still bound, per cent of control [2]: 2%; kinase still bound, per cent of control (STK35 (human)): 67%; kinase still bound, per cent of control (ALK (human)): 14%; kinase still bound, per cent of control (EPHA5 (human)): 92%; kinase still bound, per cent of control (PRKCI (human)): 45%; kinase still bound, per cent of control (CDK3 (human)): 62%; kinase still bound, per cent of control (RPS6KA1 KD2 (human)): 13%; kinase still bound, per cent of control (TNK2 (human)): 18%; kinase still bound, per cent of control (HIPK1 (human)): 1.2%; kinase still bound, per cent of control (SRPK2 (human)): 5.4%; kinase still bound, per cent of control (MAP3K2 (human)): 0.25%; kinase still bound, per cent of control (CDK14 (human)): 44%; kinase still bound, per cent of control (ACVR1B (human)): 61%; kinase still bound, per cent of control (MUSK (human)): 9.4%
4 | C=CC(=O)Nc1cc(-n2c(=O)ccc3cnc4ccc(-c5cn[nH]c5)cc4c32)ccc1C | 97 | 100 | 48 | 100 | 93 | 29 | 90 | 24 | 52 | 0.1 | 57 | 96 | 100 | 72 | 74 | 53 | 87 | 48 | 100 | 70 | kinase still bound, per cent of control [2]: 1.4%; kinase still bound, per cent of control (STK35 (human)): 98%; kinase still bound, per cent of control (ALK (human)): 100%; kinase still bound, per cent of control (EPHA5 (human)): 100%; kinase still bound, per cent of control (PRKCI (human)): 99%; kinase still bound, per cent of control (CDK3 (human)): 100%; kinase still bound, per cent of control (RPS6KA1 KD2 (human)): 94%; kinase still bound, per cent of control (TNK2 (human)): 100%; kinase still bound, per cent of control (HIPK1 (human)): 52%; kinase still bound, per cent of control (SRPK2 (human)): 96%; kinase still bound, per cent of control (MAP3K2 (human)): 88%; kinase still bound, per cent of control (CDK14 (human)): 60%; kinase still bound, per cent of control (ACVR1B (human)): 100%; kinase still bound, per cent of control (MUSK (human)): 93%

From the kinase profiling compilation of Christmann-Franck et al. (2016)
